Test results taken from US10857127B2, “Vaginal delivery systems containing selective estrogen receptor modulator (SERM) and uses thereof” (Azure Biotech, Inc., priority 2016, dated 2020).

Experiments:
[1] = hydroperoxides, cited from earlier work; for Average HPO: average of lots tested; for High HPO Lot: highest lot; for Low HPO Lot: lowest lot
[2] = Dissolution studies of Lasofoxifene in organic solvents and surfactants; type: physicochemical; details: visual examination
Procedure: The solubility of Lasofoxifene was investigated by screening various organic solvents and surfactants in increasing concentrations. The term “formulation” may refer to a pharmaceutical composition comprising […] pharmaceutically acceptable excipients.
First, 1 mg of Lasofoxifene was weighed into Eppendorf vessels and 500 μl of organic solvents and surfactants as listed in Table 20 were added. In cases of insufficient dissolution of the API, samples were treated with ultrasound for 30 min and, if necessary, heated to 50° C. while shaking (300 rpm). Afterwards, samples were examined visually regarding drug dissolution. In case of entire dissolution, the experiment was repeated with increasing drug concentrations until maximum dissolution was achieved. In addition, further organic solvents and surfactants were tested.

[3] = Peroxide value of excipients at the opening of the container; type: physicochemical; details: measured after opening the container
[4] = Dissolution studies of Lasofoxifene in organic solvents and surfactants; type: physicochemical; details: Lasofoxifene 1 mg/ml in the labelled solvent/surfactant; visual examination

Row | Compound | Average HPO [1] | High HPO Lot [1] | Low HPO Lot [1] | Dissolution of Lasofoxifene in various organic solvents and surfactants, 2 mg/ml ([2]; Lasofoxifene 2 mg/ml in the labelled solvent/surfactant) | Dissolution of Lasofoxifene in various organic solvents and surfactants, 3 mg/ml ([2]; Lasofoxifene 3 mg/ml in the labelled solvent/surfactant) | Dissolution of Lasofoxifene in various organic solvents and surfactants, 6 mg/ml ([2]; Lasofoxifene 6 mg/ml in the labelled solvent/surfactant) | Peroxide value [3] | Dissolution of Lasofoxifene in various organic solvents and surfactants, 1 mg/ml [4]
1 | OC[C@H]1O[C@@H](O[C@H]2[C@H](O)[C@@H](O)C(O)O[C@@H]2CO)[C@H](O)[C@@H](O)[C@H]1O (some centres unmarked) [Lactose] | <10 nmol/g | 10 nmol/g | <10 nmol/g |  |  |  |  | 
2 | OC[C@@H](O)[C@@H](O)[C@H](O)[C@H](O)CO [Mannitol] | <10 nmol/g | <10 nmol/g | <10 nmol/g |  |  |  |  | 
3 | OC[C@H]1O[C@@](CO)(O[C@H]2O[C@H](CO)[C@@H](O)[C@H](O)[C@H]2O)[C@@H](O)[C@@H]1O [Sucrose] | <10 nmol/g | 20 nmol/g | <10 nmol/g |  |  |  |  | 
4 | Tetraglycol [Tetraglycol (TG)] |  |  |  | dissolved | partially | not dissolved | 1.55 µmol | dissolved
